Test results from ChEMBL document CHEMBL4507319 (2021).

Legend:
Conditions in all cases: Compound concentration 1.0 uM
[1] = target: T1, Tyrosine-protein kinase ZAP-70 (Homo sapiens) (UniProt P43403); assay: ZAP-70(h) Eurofins kinase panel
T1 sequence (whole entry): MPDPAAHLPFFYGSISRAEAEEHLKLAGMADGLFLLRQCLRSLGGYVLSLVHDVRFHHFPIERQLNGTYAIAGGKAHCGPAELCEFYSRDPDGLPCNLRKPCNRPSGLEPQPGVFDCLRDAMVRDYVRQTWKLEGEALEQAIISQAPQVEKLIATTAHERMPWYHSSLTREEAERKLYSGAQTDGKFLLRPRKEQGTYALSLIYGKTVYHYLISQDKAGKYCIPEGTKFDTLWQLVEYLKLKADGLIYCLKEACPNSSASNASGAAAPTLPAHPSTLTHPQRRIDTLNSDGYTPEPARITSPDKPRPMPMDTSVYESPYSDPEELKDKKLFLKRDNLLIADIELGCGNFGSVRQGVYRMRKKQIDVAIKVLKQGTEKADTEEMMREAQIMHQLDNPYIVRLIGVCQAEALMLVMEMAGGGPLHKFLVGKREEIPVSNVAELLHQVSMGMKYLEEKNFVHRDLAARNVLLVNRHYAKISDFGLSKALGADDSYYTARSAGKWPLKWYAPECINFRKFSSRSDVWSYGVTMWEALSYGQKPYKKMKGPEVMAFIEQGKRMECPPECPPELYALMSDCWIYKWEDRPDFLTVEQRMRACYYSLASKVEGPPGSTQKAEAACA

[2] = target: T2, Rhodopsin kinase GRK7 (Homo sapiens) (UniProt Q8WTQ7); assay: GRK7(h) Eurofins kinase panel
T2 sequence (whole entry): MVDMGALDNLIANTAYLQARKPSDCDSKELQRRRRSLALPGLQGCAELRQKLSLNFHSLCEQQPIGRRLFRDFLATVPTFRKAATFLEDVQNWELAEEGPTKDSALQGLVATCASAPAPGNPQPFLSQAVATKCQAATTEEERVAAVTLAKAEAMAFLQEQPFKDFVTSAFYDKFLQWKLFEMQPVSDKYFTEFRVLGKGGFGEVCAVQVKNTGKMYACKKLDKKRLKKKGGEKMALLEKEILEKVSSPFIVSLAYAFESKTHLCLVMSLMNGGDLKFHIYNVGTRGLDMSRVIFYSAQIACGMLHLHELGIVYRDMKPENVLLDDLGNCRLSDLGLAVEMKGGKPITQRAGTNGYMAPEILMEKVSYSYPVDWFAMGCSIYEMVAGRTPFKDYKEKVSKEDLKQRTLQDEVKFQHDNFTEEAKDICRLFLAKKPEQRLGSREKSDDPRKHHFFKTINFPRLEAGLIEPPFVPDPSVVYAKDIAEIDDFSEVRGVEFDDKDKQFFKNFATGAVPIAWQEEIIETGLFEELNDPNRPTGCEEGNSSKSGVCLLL

[3] = target: 5'-AMP-activated protein kinase catalytic subunit alpha-2 (Homo sapiens, UniProt P54646)
Chain of 5'-AMP-activated protein kinase catalytic subunit alpha-2 (P54646 whole entry, looked up): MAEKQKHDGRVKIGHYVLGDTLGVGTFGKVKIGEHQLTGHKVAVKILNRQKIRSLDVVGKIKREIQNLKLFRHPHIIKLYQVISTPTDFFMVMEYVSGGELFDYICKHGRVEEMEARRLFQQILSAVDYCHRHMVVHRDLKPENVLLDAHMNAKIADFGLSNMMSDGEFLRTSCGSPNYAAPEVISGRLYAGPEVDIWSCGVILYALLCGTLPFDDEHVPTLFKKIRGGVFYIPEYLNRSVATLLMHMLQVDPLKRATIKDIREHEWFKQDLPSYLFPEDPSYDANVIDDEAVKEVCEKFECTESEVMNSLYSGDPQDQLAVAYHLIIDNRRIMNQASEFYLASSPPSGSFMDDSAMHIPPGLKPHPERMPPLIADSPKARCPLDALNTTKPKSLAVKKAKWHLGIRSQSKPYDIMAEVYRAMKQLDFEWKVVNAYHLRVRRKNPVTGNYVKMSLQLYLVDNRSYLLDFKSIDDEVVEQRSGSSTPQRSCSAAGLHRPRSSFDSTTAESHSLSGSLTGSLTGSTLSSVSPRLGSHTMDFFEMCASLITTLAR

[4] = target: T3, Serine/threonine-protein kinase BRSK1 (Homo sapiens) (UniProt Q8TDC3); assay: BrSK1(h) Eurofins kinase panel
T3 sequence (whole entry): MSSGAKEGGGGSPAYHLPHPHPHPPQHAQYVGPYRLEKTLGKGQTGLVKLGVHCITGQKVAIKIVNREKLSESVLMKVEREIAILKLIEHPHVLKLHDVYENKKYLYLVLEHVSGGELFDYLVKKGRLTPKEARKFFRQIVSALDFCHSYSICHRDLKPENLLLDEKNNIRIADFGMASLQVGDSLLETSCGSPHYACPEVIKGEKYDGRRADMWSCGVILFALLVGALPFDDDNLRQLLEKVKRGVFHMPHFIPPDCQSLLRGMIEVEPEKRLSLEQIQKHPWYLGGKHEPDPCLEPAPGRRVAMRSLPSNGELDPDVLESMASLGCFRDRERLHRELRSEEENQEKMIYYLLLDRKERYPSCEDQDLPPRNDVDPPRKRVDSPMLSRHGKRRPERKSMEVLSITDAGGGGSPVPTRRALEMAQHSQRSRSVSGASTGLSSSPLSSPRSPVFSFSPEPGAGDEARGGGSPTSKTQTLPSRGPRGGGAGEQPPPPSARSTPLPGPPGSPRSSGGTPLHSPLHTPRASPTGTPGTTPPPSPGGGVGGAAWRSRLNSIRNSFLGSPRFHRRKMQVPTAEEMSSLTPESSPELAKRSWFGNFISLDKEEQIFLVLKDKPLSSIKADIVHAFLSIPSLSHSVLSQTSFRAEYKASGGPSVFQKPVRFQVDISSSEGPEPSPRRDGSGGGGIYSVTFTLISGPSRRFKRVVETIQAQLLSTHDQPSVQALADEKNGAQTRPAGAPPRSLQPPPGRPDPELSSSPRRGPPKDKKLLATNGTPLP

[5] = target: SRSF protein kinase 2 (Homo sapiens) (UniProt P78362); assay: SRPK2(h) Eurofins kinase panel
Chain of SRSF protein kinase 2 (Homo sapiens) (P78362 whole entry, looked up): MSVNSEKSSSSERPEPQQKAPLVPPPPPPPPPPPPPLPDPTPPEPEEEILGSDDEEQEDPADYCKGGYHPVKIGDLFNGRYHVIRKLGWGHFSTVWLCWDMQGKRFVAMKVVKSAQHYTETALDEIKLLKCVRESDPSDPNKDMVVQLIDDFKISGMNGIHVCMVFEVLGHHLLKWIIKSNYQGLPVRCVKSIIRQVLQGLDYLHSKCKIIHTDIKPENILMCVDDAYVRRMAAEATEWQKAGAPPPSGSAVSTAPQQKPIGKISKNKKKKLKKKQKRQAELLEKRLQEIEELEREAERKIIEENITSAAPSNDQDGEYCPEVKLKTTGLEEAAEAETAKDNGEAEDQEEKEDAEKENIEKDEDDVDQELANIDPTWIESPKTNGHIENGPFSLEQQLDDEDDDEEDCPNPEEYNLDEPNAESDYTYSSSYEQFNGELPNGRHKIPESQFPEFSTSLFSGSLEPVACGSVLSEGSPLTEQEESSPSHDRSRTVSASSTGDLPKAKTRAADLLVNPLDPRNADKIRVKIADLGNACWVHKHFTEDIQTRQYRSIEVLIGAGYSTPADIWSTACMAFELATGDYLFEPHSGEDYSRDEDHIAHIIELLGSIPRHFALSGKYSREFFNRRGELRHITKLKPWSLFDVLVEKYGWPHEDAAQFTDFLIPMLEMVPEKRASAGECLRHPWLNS

[6] = target: Serine/threonine-protein kinase PAK 1 (Homo sapiens) (UniProt Q13153); assay: PAK1(h) Eurofins kinase panel
Chain of Serine/threonine-protein kinase PAK 1 (Homo sapiens) (Q13153 whole entry): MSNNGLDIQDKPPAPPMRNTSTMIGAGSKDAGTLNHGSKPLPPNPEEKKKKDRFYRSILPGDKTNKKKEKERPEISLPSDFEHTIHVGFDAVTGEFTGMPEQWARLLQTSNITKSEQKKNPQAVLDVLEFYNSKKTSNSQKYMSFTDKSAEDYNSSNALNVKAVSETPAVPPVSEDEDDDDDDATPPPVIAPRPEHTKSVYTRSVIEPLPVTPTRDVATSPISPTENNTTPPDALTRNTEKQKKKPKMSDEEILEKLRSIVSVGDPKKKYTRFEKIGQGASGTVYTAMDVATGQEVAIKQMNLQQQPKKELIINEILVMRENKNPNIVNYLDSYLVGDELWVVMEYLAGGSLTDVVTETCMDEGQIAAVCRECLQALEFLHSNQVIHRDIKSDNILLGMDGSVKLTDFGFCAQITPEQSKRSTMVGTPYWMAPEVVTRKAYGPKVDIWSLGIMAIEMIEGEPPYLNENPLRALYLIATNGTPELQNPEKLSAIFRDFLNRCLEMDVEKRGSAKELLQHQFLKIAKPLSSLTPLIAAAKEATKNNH

[7] = target: G protein-coupled receptor kinase 5 (Homo sapiens) (UniProt P34947); assay: GRK5(h) Eurofins kinase panel
Chain of G protein-coupled receptor kinase 5 (Homo sapiens) (P34947 whole entry, looked up): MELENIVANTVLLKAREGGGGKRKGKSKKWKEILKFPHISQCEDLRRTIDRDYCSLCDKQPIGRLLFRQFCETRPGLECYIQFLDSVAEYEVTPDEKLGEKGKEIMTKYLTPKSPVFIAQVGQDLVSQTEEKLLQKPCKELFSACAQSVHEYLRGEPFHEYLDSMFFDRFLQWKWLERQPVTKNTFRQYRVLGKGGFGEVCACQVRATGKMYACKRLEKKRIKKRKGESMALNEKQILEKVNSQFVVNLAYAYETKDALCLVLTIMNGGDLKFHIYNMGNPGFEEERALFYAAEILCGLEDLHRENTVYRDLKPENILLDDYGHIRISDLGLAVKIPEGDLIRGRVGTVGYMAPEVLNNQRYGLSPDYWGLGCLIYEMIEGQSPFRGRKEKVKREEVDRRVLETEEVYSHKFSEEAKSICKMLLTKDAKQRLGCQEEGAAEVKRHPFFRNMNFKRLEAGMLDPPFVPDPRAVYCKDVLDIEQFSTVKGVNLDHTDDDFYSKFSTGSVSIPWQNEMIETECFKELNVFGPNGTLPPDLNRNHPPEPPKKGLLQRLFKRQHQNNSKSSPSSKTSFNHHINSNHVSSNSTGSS

[8] = target: T4, Inhibitor of nuclear factor kappa-B kinase subunit alpha (Homo sapiens) (UniProt O15111); assay: IKKalpha(h) Eurofins kinase panel
T4 sequence (whole entry): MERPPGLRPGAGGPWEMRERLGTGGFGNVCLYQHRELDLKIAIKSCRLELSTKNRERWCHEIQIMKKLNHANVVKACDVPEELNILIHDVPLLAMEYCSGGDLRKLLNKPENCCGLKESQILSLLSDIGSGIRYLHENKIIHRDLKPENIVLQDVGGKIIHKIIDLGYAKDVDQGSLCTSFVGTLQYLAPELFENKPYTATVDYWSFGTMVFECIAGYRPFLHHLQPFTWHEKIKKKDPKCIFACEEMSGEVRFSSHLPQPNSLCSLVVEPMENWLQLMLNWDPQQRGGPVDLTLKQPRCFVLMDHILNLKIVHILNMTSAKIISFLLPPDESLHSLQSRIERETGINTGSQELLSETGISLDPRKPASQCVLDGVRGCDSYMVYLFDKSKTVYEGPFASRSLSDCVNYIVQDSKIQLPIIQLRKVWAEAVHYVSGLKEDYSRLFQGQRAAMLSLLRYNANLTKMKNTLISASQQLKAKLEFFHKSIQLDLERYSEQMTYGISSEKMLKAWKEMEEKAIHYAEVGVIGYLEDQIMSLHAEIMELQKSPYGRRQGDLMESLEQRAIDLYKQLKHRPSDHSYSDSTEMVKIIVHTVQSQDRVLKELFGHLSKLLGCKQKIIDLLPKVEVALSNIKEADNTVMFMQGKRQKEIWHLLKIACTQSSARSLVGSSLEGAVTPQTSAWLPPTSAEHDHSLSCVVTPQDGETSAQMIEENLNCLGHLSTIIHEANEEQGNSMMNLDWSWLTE

[9] = target: Dual specificity protein kinase CLK4 (Homo sapiens) (UniProt Q9HAZ1); assay: CLK4(h) Eurofins kinase panel
Chain of Dual specificity protein kinase CLK4 (Homo sapiens) (Q9HAZ1 whole entry, looked up): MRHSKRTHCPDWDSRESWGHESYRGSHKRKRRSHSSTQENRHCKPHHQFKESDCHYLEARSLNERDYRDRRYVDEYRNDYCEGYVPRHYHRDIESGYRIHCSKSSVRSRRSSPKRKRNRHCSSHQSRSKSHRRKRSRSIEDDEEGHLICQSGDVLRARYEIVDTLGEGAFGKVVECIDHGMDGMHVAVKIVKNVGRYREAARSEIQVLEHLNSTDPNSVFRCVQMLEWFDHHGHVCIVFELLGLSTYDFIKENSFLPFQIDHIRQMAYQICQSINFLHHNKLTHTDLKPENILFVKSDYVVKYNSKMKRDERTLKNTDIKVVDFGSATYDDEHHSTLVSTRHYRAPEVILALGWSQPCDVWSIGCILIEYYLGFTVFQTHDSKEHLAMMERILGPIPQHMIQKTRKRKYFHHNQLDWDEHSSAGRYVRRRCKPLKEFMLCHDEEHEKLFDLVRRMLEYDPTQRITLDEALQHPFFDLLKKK

[10] = target: Death-associated protein kinase 1 (Homo sapiens) (UniProt P53355); assay: DAPK1(h) Eurofins kinase panel
Chain of Death-associated protein kinase 1 (Homo sapiens) (P53355 whole entry, looked up): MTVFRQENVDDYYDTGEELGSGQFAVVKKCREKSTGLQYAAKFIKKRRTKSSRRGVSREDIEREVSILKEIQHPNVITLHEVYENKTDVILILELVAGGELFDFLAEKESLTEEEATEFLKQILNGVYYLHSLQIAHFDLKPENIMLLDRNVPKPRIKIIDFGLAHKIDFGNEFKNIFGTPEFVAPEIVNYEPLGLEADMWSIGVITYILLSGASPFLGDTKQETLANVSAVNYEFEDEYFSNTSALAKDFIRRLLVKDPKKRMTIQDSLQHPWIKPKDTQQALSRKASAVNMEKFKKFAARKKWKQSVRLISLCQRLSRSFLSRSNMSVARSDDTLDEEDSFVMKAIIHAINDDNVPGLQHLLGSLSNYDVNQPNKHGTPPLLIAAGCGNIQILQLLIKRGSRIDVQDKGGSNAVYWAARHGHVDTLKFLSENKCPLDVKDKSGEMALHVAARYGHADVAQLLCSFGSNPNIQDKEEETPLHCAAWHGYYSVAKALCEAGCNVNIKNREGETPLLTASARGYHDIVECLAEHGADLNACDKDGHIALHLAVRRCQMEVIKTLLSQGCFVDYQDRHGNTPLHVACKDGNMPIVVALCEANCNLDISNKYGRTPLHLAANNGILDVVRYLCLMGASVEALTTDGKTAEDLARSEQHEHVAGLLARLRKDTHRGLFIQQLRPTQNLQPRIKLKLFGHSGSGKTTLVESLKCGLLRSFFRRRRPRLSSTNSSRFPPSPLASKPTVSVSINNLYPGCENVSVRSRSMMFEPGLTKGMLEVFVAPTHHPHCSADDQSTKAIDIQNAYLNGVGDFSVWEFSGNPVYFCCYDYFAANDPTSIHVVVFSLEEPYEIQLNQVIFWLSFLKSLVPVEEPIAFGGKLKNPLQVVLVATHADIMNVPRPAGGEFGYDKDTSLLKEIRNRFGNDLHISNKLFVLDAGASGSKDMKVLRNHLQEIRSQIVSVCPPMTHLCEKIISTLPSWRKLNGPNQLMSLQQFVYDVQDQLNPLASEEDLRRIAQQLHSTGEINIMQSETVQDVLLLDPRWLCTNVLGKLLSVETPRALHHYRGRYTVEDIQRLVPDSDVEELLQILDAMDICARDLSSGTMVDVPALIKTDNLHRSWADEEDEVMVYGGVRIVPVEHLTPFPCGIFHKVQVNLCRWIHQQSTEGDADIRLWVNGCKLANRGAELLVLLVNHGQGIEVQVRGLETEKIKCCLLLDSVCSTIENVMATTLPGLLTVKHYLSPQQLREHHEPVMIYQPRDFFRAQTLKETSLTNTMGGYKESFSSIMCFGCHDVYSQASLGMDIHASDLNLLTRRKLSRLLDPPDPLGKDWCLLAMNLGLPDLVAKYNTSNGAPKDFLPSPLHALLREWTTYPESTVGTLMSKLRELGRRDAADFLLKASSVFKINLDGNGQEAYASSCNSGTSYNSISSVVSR

Measured: % residual kinase activity

CCc1ccccc1C(=O)Nc1n[nH]c2c(C)c(F)c(C3C(C#N)=C(C)N(C)C(C)=C3C#N)cc12 [BAY-3827]
inactive: [1] 119% | [2] 78% | [3] 0% | [4] 64% | [5] 83% | [6] 94% | [7] 98% | [8] 107% | [9] 104% | [10] 100%
